Assay results taken from US20190351006A1, “METHODS OF ADMINISTRATION OF NMDA RECEPTOR AGONISTS” (Naurex Inc., priority 2017, published 2019).
Peptide text beside a SMILES is read from it.

Columns and labels:
[1] = test system: C57BL/6J mice; experiment: In vivo microdialysis of neurotransmitter efflux in mPFC and HIP; design: species or system Male C57BL/6J mice; details: rapastinel 1 mg/kg subcu, ketamine 30 mg/kg
Experimental: (§1) Animals: Male C57BL/6J mice 22-25 g (21/2 to 3 month old) were used is these studies. Drugs: Rapastinel was obtained from SAI Life Sciences (India). Rapastinel, PCP, and ketamine were dissolved in 0.9% sterile saline (Sal). PCP and ketamine were administered intraperitoneally (ip), at a volume of 10 mL/kg body weight. Rapastinel was given subcutaneously (subcu), and rapamycin was given intracerebroventricularly (icy). Drug Treatments: Male C57BL/6J mice were randomly assigned to treatment groups of 10 per group. To develop the cognitive deficit, groups of 10 mice were treated with PCP (10 mg/kg i.p., twice a day for 7 days) followed by a 7-day washout period. Following the washout period, the subchronic PCP mice were tested to determine that an NOR deficit had been established. See Rajagopal et al 3,4. See FIG. 7, for treatment schedules. Behavior, in vivo Microdialysis (MD) and ICV Procedures—The procedures have been described in detail in References 3,10,11,12,13. See FIG. 7. for pictorial representations of drug treatment protocols. Rapastinel's ability to restore episodic memory (NOR) and cognitive flexibility (RL), like its antidepressant action in rodents, is mTOR dependent as indicated by blockade by ICV rapamycin. […]

[2] = test system: scPCP-treated mice; experiment: Reversal learning (RL) task in subchronic PCP mice; assay type: in vivo, Male C57BL/6J mice
Experimental: as §1

[3] = test system: scPCP-treated mice; experiment: Novel object recognition (NOR) in subchronic PCP (scPCP) mice; assay type: in vivo, Male C57BL/6J mice
Experimental: Animals: Male C57BL/6J mice 22-25 g (21/2 to 3 month old) were used is these studies. Drugs: Rapastinel was obtained from SAI Life Sciences (India). Rapastinel, PCP, and ketamine were dissolved in 0.9% sterile saline (Sal). PCP and ketamine were administered intraperitoneally (ip), at a volume of 10 mL/kg body weight. Rapastinel was given subcutaneously (subcu), and rapamycin was given intracerebroventricularly (icy). Drug Treatments: Male C57BL/6J mice were randomly assigned to treatment groups of 10 per group. To develop the cognitive deficit, groups of 10 mice were treated with PCP (10 mg/kg i.p., twice a day for 7 days) followed by a 7-day washout period. Following the washout period, the subchronic PCP mice were tested to determine that an NOR deficit had been established. See Rajagopal et al 3,4. See FIG. 7, for treatment schedules. Behavior, in vivo Microdialysis (MD) and ICV Procedures—The procedures have been described in detail in References 3,10,11,12,13. See FIG. 7. for pictorial representations of drug treatment protocols. Rapastinel's ability to restore episodic memory (NOR) and cognitive flexibility (RL), like its antidepressant action in rodents, is mTOR dependent as indicated by blockade by ICV rapamycin. […] Increase in cortical DA efflux, in transient and subchronic rescue by rapastinel, may be important for triggering neuroplastic changes in AMPAR modulation of the activity of principal neurons in mPFC and HIP.

[4] = PCP 10 mg/kg i.p. twice a day for 7 days, then 7-day washout

Row | Compound | Neurotransmitter efflux in mPFC [1] | RL deficit (percent correct responses), acute rapastinel ([2]; scPCP mice, 1 mg/kg sc, 30 min before reversal phase of the RL task) | Duration of rescue of NOR deficit after subchronic rapastinel, 5 days ([3]; scPCP mice, 1 mg/kg sc, b.i.d. for 5 days) | NOR deficit (DI), acute rapastinel ([3]; scPCP mice, 1 mg/kg subcu, 30 min before AT) | Reversal of scPCP-induced NOR deficit, 5 day vs 3 day treatment ([3]; scPCP mice, 1 mg/kg subcu, b.i.d. for 5 days) | NOR after a single acute dose once the subchronic effect had ended ([3]; scPCP mice, single dose 1 mg/kg sc, 30 min prior to AT, week 10 (or week 11)) | Percent correct responses in RL vs veh-treated mice [2, 4] | DI in NOR vs vehicle-treated mice [3, 4]
1 | CNC1(c2ccccc2Cl)CCCCC1=O (stereo not drawn) [Ketamine, ketamine, reference compound] | very large increases in the efflux of ACh, DA, 5-HT, DOPAC, 5-HIAA, and glutamate, and serine | – | – | – | – | – | – | –
2 | C[C@@H](O)[C@H](N)C(=O)N1CCC[C@H]1C(=O)N1CCC[C@H]1C(=O)N[C@H](C(N)=O)[C@@H](C)O [rapastinel] (H-TPPT-NH2) | small selective increase in DA efflux | rescued RL deficit | at least 10 weeks | rescued NOR deficit | longer compared to 3 day treatment | restored NOR | – | –
3 | c1ccc(C2(N3CCCCC3)CCCCC2)cc1 [PCP, reference compound] | – | – | – | – | – | – | reduced percent correct responses | reduced DI
